{"source": "patent US20030055106A1", "about": "“Therapeutic uses of peroxometallic compounds” (priority 1999, published 2003)", "key": {"[1]": {"test_system": "ZR-75 breast cancer cells", "assay": "In vitro collagen-fibrin tumor progression model, ZR-75", "type": "cell-based, human", "description": "FIG. 12: Illustration of the antitumor activity of bpV(phen) in vitro using ZR-75 breast cancer cells. Experiments were done as described for the FIG. 11 except that DMEM medium having a high glucose concentration and without phenol red was used. 10% FBS was used instead of 5% FBS. The media was supplemented with 10^−9 M estradiol (final concentration).\nThe cells embedded in the collagen gel, grew as a “primary tumor”. Some cells migrated from the primary tumor towards the fibrin gel, forming front edges. […] Their extension and numbers are representative of the invasive potential of the cancer cells."}, "[2]": {"test_system": "Th1 and Th2 cytokine genes in spleen", "assay": "Cytokine gene expression in spleen (multi-probe RNase protection assay)", "type": "in vivo, BALB/c mice", "conditions": "naive mice; up to 24 hr; in comparison to PBS", "description": "FIG. 8: In vivo bpV(phen)-induced cytokine gene expression in spleen of BALB/c mice. Expression of Th1 (IFN-(, IL-2, IL-12) and Th2 (IL-4 and IL-10) cytokines were monitored in spleen of BALB/c mice in response to bpv(phen) over a 24-hr period. Expression of cytokine genes has been monitored using a multi-probe RNase protection assay as described in more detail below. Results obtained are representative of 3 experiments performed independently."}, "[3]": {"test_system": "endothelial cells having invaded Matrigel plugs", "assay": "In vivo s.c. Matrigel plug assay", "design": "species or system C57B1/6N female mice", "conditions": "daily i.p. administration of 10 μg/mice or higher doses, day 1 to day 7", "procedure": "FIG. 5: bpV(phen) inhibits angiogenesis in vivo in the s.c. Matrigel assay. Graph showing the results of an experiment expressed as the number of cells that migrated in three microscopic fields for each s.c. Matrigel plug. Fields were equidistant from the edge of the plug. […] (2) Four mice that received daily administration of 10 μg bpV(phen) during the 7 days post-implantation. (3) Four mice that received daily administration of 50 μg bpV(phen) during the 7 days post-implantation. (4) Four mice that received daily administration of 100 μg bpv(phen) during the 7 days post-implantation. (5) Four mice that received daily administration of PBS during the 7 days post-implantation.\nThis assay was performed as previously described (107). Briefly, Matrigel (liquid at 4° C.) was mixed with 200 ng/ml ECGS and injected s.c. into four C57B1/6N female mice (1 ml/mice). After injection, the Matrigel polymerized to form a plug. After 7 days, the animals were sacrified, and the Matrigel plugs were removed and fixed in 10% neutral-buffered formalin solution (Sigma Chemical Co.) and embedded in paraffin. Histological sections were stained with Masson's trichrome and angiogenesis was scored by counting the number of cells that migrated in three microscopic fields for each s.c. Matrigel plug.\nExperiments were performed to determine whether bpV(phen) inhibits vessel formation in vivo. […]"}}}
{"compound": "O.O.O.OO.OO.[K+].[OH-].[V].c1cnc2c(c1)ccc1cccnc12", "note": "[bpV(phen), potassium bisperoxo(1,10-phenanthroline)oxovanadate]", "values": [{"measurement": "progression of ZR-75-1 cells (primary and secondary tumors)", "setting": "[1]; 2 μM", "value": "restricted the growth of the primary tumor"}, {"measurement": "progression of ZR-75-1 cells (primary and secondary tumors)", "setting": "[1]; 5 and 10 μM", "value": "there were no secondary tumors and the primary tumor had a lower cell density"}, {"measurement": "cytokine gene expression in spleen (IL-12, IL-10, IL-2 and IFN)", "setting": "[2]", "value": "significantly up-regulated"}, {"measurement": "number of endothelial cells having invaded Matrigel plugs", "setting": "[3]", "value": "decreased by half"}]}
